# Assay results published in publication PMC8286840, “Identifying SARS-CoV-2 antiviral compounds by screening for small molecule inhibitors of Nsp3 papain-like protease” (Biochemical Journal, 2021).
# Where a name gives a salt, the structure may show the parent alone. Read-outs that look alike come from different tables or passages of the source. Where a SMILES comes first, the peptide text is derived from it.
# Tests used:
# [1] = target: T1, SARS-CoV-2 PLpro (nsp3 1564–1878) (Severe acute respiratory syndrome coronavirus 2, UniProt P0DTD1); assay: biochemical; design: FRET-quenched peptide (Pro3) cleavage by PLpro, 10 min pre-incubation, slope over 20 min, normalised to no-compound control; conditions: low concentration screen, read-out: % of control remaining
# [2] = target: T1, SARS-CoV-2 PLpro (nsp3 1564–1878); assay: biochemical; design: FRET-quenched peptide (Pro3) cleavage by PLpro, 10 min pre-incubation, slope over 20 min, normalised to no-compound control; conditions: high concentration screen, read-out: % of control remaining
compound,measurement,setting,value
C[C@@H](O)[C@H]1C(=O)N2C(C(=O)O)=C(S[C@@H]3CN[C@H](CNS(N)(=O)=O)C3)[C@H](C)[C@H]12 [Doripenem Hydrate],remaining activity at 1.25 µM,[1]; Well no.=5203,103%
same,remaining activity at 3.75 µM,[2]; Well no.=5203,104%
N[C@@H](CCC(=O)O)C(=O)N[C@@H](Cc1c[nH]c2ccccc12)C(=O)O [Oglufanide] (H-Glu-Trp-OH),remaining activity at 1.25 µM,[1]; Well no.=8604,107%
same,remaining activity at 3.75 µM,[2]; Well no.=8604,101%
c1cnc(N2CCN(Cc3ccc4c(c3)OCO4)CC2)nc1 [Piribedil maleate],remaining activity at 1.25 µM,[1]; Well no.=1163,96.1%
same,remaining activity at 3.75 µM,[2]; Well no.=1163,96.2%
O=C1c2cccc3c2[C@H](CCC3)CN1[C@@H]1CN2CCC1CC2 [Palonosetron HCl],remaining activity at 1.25 µM,[1]; Well no.=4923,99.3%
same,remaining activity at 3.75 µM,[2]; Well no.=4923,98.2%
CN1[C@@H]2CC[C@H]1C[C@@H](OC(c1ccccc1)c1ccccc1)C2 [Benztropine mesylate],remaining activity at 1.25 µM,[1]; Well no.=177,104%
same,remaining activity at 3.75 µM,[2]; Well no.=177,104%
COc1cc2nc(N3CCCN(C)CC3)nc(NC3CCN(Cc4ccccc4)CC3)c2cc1OC [BIX01294],remaining activity at 1.25 µM,[1]; Well no.=5180,102%
same,remaining activity at 3.75 µM,[2]; Well no.=5180,99.6%
c1ccc2c(c1)CN1CCCC1=N2 [Desoxypeganine],remaining activity at 1.25 µM,[1]; Well no.=3278,98%
same,remaining activity at 3.75 µM,[2]; Well no.=3278,97.7%
CC(C)c1cc(-c2n[nH]c(=O)n2-c2ccc3c(ccn3C)c2)c(O)cc1O [Ganetespib (STA-9090)],remaining activity at 1.25 µM,[1]; Well no.=9028,85.9%
same,remaining activity at 3.75 µM,[2]; Well no.=9028,86.1%
COC(=O)CC(NC(=O)OC(C)(C)C)C(=O)CF [BOC-D-FMK],remaining activity at 1.25 µM,[1]; Well no.=6868,95.7%
same,remaining activity at 1.25 µM,[1]; Well no.=7644,101%
same,remaining activity at 3.75 µM,[2]; Well no.=6868,93.9%
same,remaining activity at 3.75 µM,[2]; Well no.=7644,95.4%
C[C@@H]1CN(CC(=O)Nc2ccc3c(c2)Cc2cccc(-c4cc(=O)cc(N5CCOCC5)o4)c2S3)C[C@H](C)O1 [KU-60019],remaining activity at 1.25 µM,[1]; Well no.=5299,93.8%
same,remaining activity at 3.75 µM,[2]; Well no.=5299,85.8%
O=C(Nc1cccc(Nc2cc(Nc3cccc(C(F)(F)F)c3)ncn2)c1)C1CC1 [EGFR Inhibitor],remaining activity at 1.25 µM,[1]; Well no.=2403,106%
same,remaining activity at 3.75 µM,[2]; Well no.=2403,103%
Nc1ncnc2c1ncn2[C@@H]1O[C@H](CO)[C@@H](O)[C@H]1O [Adenosine],remaining activity at 1.25 µM,[1]; Well no.=200,94%
same,remaining activity at 1.25 µM,[1]; Well no.=6301,105%
same,remaining activity at 1.25 µM,[1]; Well no.=8048,87.9%
same,remaining activity at 3.75 µM,[2]; Well no.=200,95.6%
same,remaining activity at 3.75 µM,[2]; Well no.=6301,102%
same,remaining activity at 3.75 µM,[2]; Well no.=8048,88.7%
CCN(CC)Cc1cc(Nc2ccnc3cc(Cl)ccc23)ccc1O [Amodiaquine dihydrochloride dihydrate],remaining activity at 1.25 µM,[1]; Well no.=8396,97.5%
same,remaining activity at 3.75 µM,[2]; Well no.=8396,106%
COc1c(N2C[C@@H]3CCCN[C@@H]3C2)c(F)cc2c(=O)c(C(=O)O)cn(C3CC3)c12 [Moxifloxacin HCl],remaining activity at 1.25 µM,[1]; Well no.=4878,98.1%
same,remaining activity at 3.75 µM,[2]; Well no.=4878,93.6%
Nc1ccc(S(=O)(=O)Nc2nccs2)cc1 [Sulfathiazole],remaining activity at 1.25 µM,[1]; Well no.=4937,98.9%
same,remaining activity at 3.75 µM,[2]; Well no.=4937,95.6%
Nc1ccn([C@H]2C[C@H](O)[C@@H](COP(=O)(O)OP(=O)(O)OP(=O)(O)O)O2)c(=O)n1 [Deoxycytidine triphosphate],remaining activity at 1.25 µM,[1]; Well no.=7355,99.9%
same,remaining activity at 1.25 µM,[1]; Well no.=7870,101%
same,remaining activity at 3.75 µM,[2]; Well no.=7355,100%
same,remaining activity at 3.75 µM,[2]; Well no.=7870,102%
O=C(c1ccc(OCCN2CCCCC2)cc1)c1c(-c2ccc(O)cc2)sc2cc(O)ccc12 [Raloxifene],remaining activity at 1.25 µM,[1]; Well no.=1662,107%
same,remaining activity at 3.75 µM,[2]; Well no.=1662,108%
CCC(NC(C)C)C(O)c1ccc(O)c(O)c1 (centres unmarked) [Isotharine mesylate],remaining activity at 1.25 µM,[1]; Well no.=915,104%
same,remaining activity at 3.75 µM,[2]; Well no.=915,104%
NS(=O)(=O)c1ccc(N=Nc2c(O)[nH]c3ccc(Br)cc23)cc1 [Cdk2 Inhibitor II],remaining activity at 1.25 µM,[1]; Well no.=2383,102%
same,remaining activity at 3.75 µM,[2]; Well no.=2383,103%
O=C(NC1CCN(CCCCC2(C(=O)NCC(F)(F)F)c3ccccc3-c3ccccc32)CC1)c1ccccc1-c1ccc(C(F)(F)F)cc1 [Lomitapide],remaining activity at 1.25 µM,[1]; Well no.=8672,93.8%
same,remaining activity at 3.75 µM,[2]; Well no.=8672,93.5%
CCCCCCCCCCC(=O)O [Undecanoic acid],remaining activity at 1.25 µM,[1]; Well no.=4252,95.5%
same,remaining activity at 3.75 µM,[2]; Well no.=4252,91.9%
CC(C)NCC(O)c1ccc(NS(C)(=O)=O)cc1 (centres unmarked) [Sotalol.HCl],remaining activity at 1.25 µM,[1]; Well no.=1785,103%
same,remaining activity at 3.75 µM,[2]; Well no.=1785,102%
CCCN1C[C@H](CSC)C[C@@H]2c3cccc4[nH]cc(c34)C[C@H]21 [Pergolide mesylate],remaining activity at 1.25 µM,[1]; Well no.=1602,94.9%
same,remaining activity at 3.75 µM,[2]; Well no.=1602,97.1%
CC(C)CC(N(C)C)C1(c2ccc(Cl)cc2)CCC1 (centres unmarked) [Sibutramine],remaining activity at 1.25 µM,[1]; Well no.=2249,95.2%
same,remaining activity at 3.75 µM,[2]; Well no.=2249,98.7%
O=C1[C@@H]2[C@H]3CC[C@H](C3)[C@@H]2C(=O)N1C[C@@H]1CCCC[C@H]1CN1CCN(c2nsc3ccccc23)CC1 [Lurasidone HCl],remaining activity at 1.25 µM,[1]; Well no.=4891,99.3%
same,remaining activity at 3.75 µM,[2]; Well no.=4891,98%
CC(C)(C[C@H]1CN(S(=O)(=O)c2cccc(C(F)(F)F)c2)c2cc(-c3cc(F)cc(OC(F)F)c3)ccc2O1)C(=O)O [Cintirorgon],remaining activity at 1.25 µM,[1]; Well no.=8171,99.9%
same,remaining activity at 3.75 µM,[2]; Well no.=8171,98.6%
CC(N/C(=N\C#N)Nc1ccncc1)C(C)(C)C (centres unmarked) [Pinacidil],remaining activity at 1.25 µM,[1]; Well no.=1503,98.1%
same,remaining activity at 1.25 µM,[1]; Well no.=1603,103%
same,remaining activity at 3.75 µM,[2]; Well no.=1503,97.2%
same,remaining activity at 3.75 µM,[2]; Well no.=1603,98.9%
C[N+](C)(C)C[C@H](O)CC(=O)[O-] [L-carnitine],remaining activity at 1.25 µM,[1]; Well no.=8100,106%
same,remaining activity at 3.75 µM,[2]; Well no.=8100,104%
"S=c1ccss1 [1,2-Dithiole-3-thione]",remaining activity at 1.25 µM,[1]; Well no.=4139,93.1%
same,remaining activity at 3.75 µM,[2]; Well no.=4139,94.1%
COc1ccc(CC(=O)NC(N=C(NC#N)Nc2cccc3ncccc23)C(C)(C)C)cc1OC (centres unmarked) [A-740003],remaining activity at 1.25 µM,[1]; Well no.=5421,92%
same,remaining activity at 3.75 µM,[2]; Well no.=5421,96.3%
CC(=O)Oc1ccccc1C(=O)Oc1ccc(CO[N+](=O)[O-])cc1 [NCX 4040],remaining activity at 1.25 µM,[1]; Well no.=6087,99.1%
same,remaining activity at 3.75 µM,[2]; Well no.=6087,99.2%
CCCc1c2oc(C(=O)O)cc(=O)c2cc2c(=O)cc(C(=O)O)n(CC)c12 [Nedocromil],remaining activity at 1.25 µM,[1]; Well no.=6525,95.3%
same,remaining activity at 3.75 µM,[2]; Well no.=6525,95%
